This note sets out measurements from patent US20260184663A1, “INDENE COMPOUNDS, PHARMACEUTICAL COMPOSITIONS THEREOF, AND THEIR THERAPEUTIC APPLICATIONS” (NucMito Pharmaceuticals co. Ltd., priority 2022, published 2026).

Common to all, as to assay type: cell-based
Assay [1] has as its system alpha-smooth muscle actin (α-SMA). Nature of the assay: Inhibition of TGF-β induced expression of alpha-smooth muscle actin (α-SMA) in CFSC cells (western blot). As to conditions: compound at 10 μM, TGF-β (10 ng/mL), 24 hours, band intensity vs TGF-β only. The essentials: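 Values are percent reduction of α-SMA band intensity relative to cells given TGF-β alone, quantified by Western blot densitometry with β-actin probed. Compound was applied at 10 μM alongside 10 ng/mL TGF-β to serum-free CFSC cultures for 24 h at 37 °C.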

Assay [2] deals with MDA-MB-231 (breast cancer). Kind of assay: Antiproliferative activity (CCK-8 cell viability), MDA-MB-231. As to conditions: Homo sapiens, 72 h, read-out: Antiproliferative activity in cancerous cells, MDA-MB-231 (inhibition of cell growth); for inhibition at 3.3 µM: Compound concentration: 3.3 μM; for inhibition at 10 µM: Compound concentration: 10 μM. An outline of the steps:
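MDA-MB-231 breast cancer cells, grown in DMEM with 10% FBS, were plated in 96-well plates at 2,000-5,000 cells/well. Once attached, they were exposed to compound and incubated at 37° C. for 72 h. Viability was then measured with CCK-8 (10 μL per well, 4 h at 37° C.) by absorbance at 450 nm, relative to DMSO vehicle wells.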

The subject of assay [3] is HepG2 (liver cancer). Nature of the assay: Antiproliferative activity (CCK-8 cell viability), HepG2. As to conditions: Homo sapiens, 72 h, read-out: Antiproliferative activity in cancerous cells, HepG2 (inhibition of cell growth); for inhibition at 3.3 µM: Compound concentration: 3.3 μM; for inhibition at 10 µM: Compound concentration: 10 μM. The essentials:
(§1)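 Cells grown in DMEM (HepG2, SW480), MEM (HeLa) or F-12K (A549), each with 10% FBS, then exposed to compound at 3.3, 10 or 30 μM for 72 h at 37 °C. CCK-8 absorbance at 450 nm; viability expressed as percent of DMSO-treated cells, graded as growth inhibition bands.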

Assay [4] concerns SW480 (colon cancer). Kind of assay: Antiproliferative activity (CCK-8 cell viability), SW480. To be noted: Homo sapiens, 72 h, read-out: Antiproliferative activity in cancerous cells, SW480 (inhibition of cell growth); for inhibition at 3.3 µM: Compound concentration: 3.3 μM; for inhibition at 10 µM: Compound concentration: 10 μM. The essentials:
as §1

The subject of assay [5] is B16F10 (malignant melanoma). Nature of the assay: Antiproliferative activity (CCK-8 cell viability), B16F10. To be noted: Mus musculus, 72 h, read-out: Antiproliferative activity in cancerous cells, B16F10 (inhibition of cell growth); for inhibition at 3.3 µM: B16-F10, Compound concentration: 3.3 μM; for inhibition at 10 µM: B16-F10, Compound concentration: 10 μM. An outline of the steps:
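B16F10 melanoma cells grown in DMEM with 10% FBS were plated in 96-well plates at 2,000-5,000 cells/well. After attachment they were exposed to compound in medium for 72 h at 37° C. CCK-8 solution (10 μL) was then added, and after 4 h at 37° C absorbance was read at 450 nm.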

Assay [6] relates to A431 (epidermoid carcinoma). Nature of the assay: Antiproliferative activity (CCK-8 cell viability), A431. As to conditions: Homo sapiens, 72 h, read-out: Antiproliferative activity in cancerous cells, A431 (inhibition of cell growth); for inhibition at 3.3 µM: A-431, Compound concentration: 3.3 μM; for inhibition at 10 µM: A-431, Compound concentration: 10 μM. An outline of the steps: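 A431 epidermoid carcinoma cells grown in DMEM with 10% FBS were plated at 2,000-5,000 cells/well in 96-well plates. After attachment they were exposed to compound at 3.3 μM, 10 μM, or 30 μM for 72 h at 37° C. Viability was then assessed by CCK-8 against DMSO vehicle-treated wells.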

Assay [7] relates to A549 (lung adenocarcinoma). Nature of the assay: Antiproliferative activity (CCK-8 cell viability), A549. As to conditions: Homo sapiens, 72 h, read-out: Antiproliferative activity in cancerous cells, A549 (inhibition of cell growth); for inhibition at 3.3 µM: Compound concentration: 3.3 μM; for inhibition at 10 µM: Compound concentration: 10 μM. An outline of the steps:
as §1

Assay [8] has as its system HeLa (cervical cancer). Kind of assay: Antiproliferative activity (CCK-8 cell viability), HeLa. To be noted: Homo sapiens, 72 h, read-out: Antiproliferative activity in cancerous cells, HELA (inhibition of cell growth); for inhibition at 3.3 µM: Compound concentration: 3.3 μM; for inhibition at 10 µM: Compound concentration: 10 μM. An outline of the steps: as §1

Regarding `O=C(O)CC1=C(CC2CCCC2)/C(=C/c2ccc(COc3ccccc3)cc2)c2ccc(F)cc21` [A3, (Z)-2-(2-(Cyclopentylmethyl)-5-fluoro-1-(4-(phenoxymethyl)benzylidene)-1H-inden-3-yl)acetic acid], the inhibition at 10 µM in assay [1] is greater than 80%; in assay [2] it was no less than 50%; in assay [3], no less than 50%; in assay [4] it was no less than 50%; in assay [5] it was no less than 50%; in assay [6], no less than 50%. For the same molecule, the inhibition at 10 µM in assay [7] and in assay [8] was no less than 50% each time. The inhibition at 3.3 µM was no less than 50% in assay [2]; 30 to 50% in assay [3]; no less than 50% in assay [4]; no less than 50% in assay [5]; no less than 50% in assay [6]; 30 to 50% in assay [7]. For the same molecule, the inhibition at 3.3 µM in assay [8] is 30 to 50%.

`CC1=C(CCO)c2cc(F)ccc2/C1=C\c1ccc(Oc2ccc(F)cc2)cc1` [A201, (Z)-2-(5-Fluoro-1-(4-(4-fluorophenoxy)benzylidene)-2-methyl-1H-inden-3-yl)-ethan-1-ol]: the inhibition at 10 µM was less than 30% in assay [1]; no less than 50% in assay [2]; no less than 50% in assay [3]; no less than 50% in assay [4]; no less than 50% in assay [5]; no less than 50% in assay [6]. For the same molecule, the inhibition at 10 µM in assay [7] and in assay [8] was no less than 50% in each case. Moreover, the inhibition at 3.3 µM was 30 to 50% in assay [2]; no less than 50% in assay [3]; no less than 50% in assay [4]; less than 30% in assay [5]; no less than 50% in assay [6]; 30 to 50% in assay [7]. Moreover, the inhibition at 3.3 µM in assay [8] is 30 to 50%.

Turning to `CC1=C(CC(=O)O)c2cc(F)ccc2/C1=C\c1ccc(CN(Cc2ccccn2)c2ccccc2)cc1` [B16, (Z)-2-(5-Fluoro-2-methyl-1-(4-((phenyl(pyridin-2-ylmethyl)amino)methyl)-benzylidene)-1H-inden-3-yl)acetic acid], the inhibition at 10 µM in assay [1] was greater than 80%; in assay [2], no less than 50%; in assay [3] it was no less than 50%; in assay [4], less than 30%; in assay [5], no less than 50%; in assay [6] it was no less than 50%. Besides, the inhibition at 10 µM in assay [7] and in assay [8] was no less than 50% throughout. The inhibition at 3.3 µM in assay [2] was no less than 50%; in assay [3], less than 30%; in assay [4], less than 30%; in assay [5], 30 to 50%; in assay [6] it was less than 30%; in assay [7] it was no less than 50%. For the same molecule, in assay [8], the inhibition at 3.3 µM is 30 to 50%.

In the case of `CC(C)c1ccc(/C=C2/C(Cc3ccc(Oc4ccc(F)cc4)cc3)=C(CC(=O)O)c3cc(F)ccc32)cc1` [A103, (Z)-2-(5-Fluoro-2-(4-(4-fluorophenoxy)benzyl)-1-(4-isopropylbenzylidene)-1H-inden-3-yl)acetic acid], the inhibition at 10 µM in assay [1] was greater than 80%; in assay [2], no less than 50%; in assay [3], no less than 50%; in assay [4] it was no less than 50%; in assay [5] it was no less than 50%; in assay [6], no less than 50%. Further, the inhibition at 10 µM in assay [7] and in assay [8] was no less than 50% throughout. Moreover, the inhibition at 3.3 µM in assay [2], in assay [3], in assay [4], in assay [5], in assay [6] and in assay [7] was no less than 50% throughout. Besides, in assay [8], the inhibition at 3.3 µM is no less than 50%.

In the case of `CC1=C(CC(=O)O)c2c(F)ccc(F)c2/C1=C/c1ccc(C(C)C)cc1` [E12, (E)-2-(4,7-Difluoro-1-(4-isopropylbenzylidene)-2-methyl-1H-inden-3-yl)acetic acid], the inhibition at 10 µM was less than 30% in assay [1]; no less than 50% in assay [2]; less than 30% in assay [3]; 30 to 50% in assay [4]; no less than 50% in assay [5]; 30 to 50% in assay [6]. Also, the inhibition at 10 µM in assay [7] and in assay [8] was 30 to 50% each time. Moreover, the inhibition at 3.3 µM is no less than 50% in assay [2]; less than 30% in assay [3]; less than 30% in assay [4]; 30 to 50% in assay [5]; less than 30% in assay [6]; less than 30% in assay [7]. Moreover, in assay [8], the inhibition at 3.3 µM is less than 30%. Besides, the inhibition at 30 µM is no less than 50% in assay [2] (Compound concentration: 30 μM); 30 to 50% in assay [3] (Compound concentration: 30 μM); no less than 50% in assay [4] (Compound concentration: 30 μM); no less than 50% in assay [5] (B16-F10, Compound concentration: 30 μM); no less than 50% in assay [6] (A-431, Compound concentration: 30 μM); no less than 50% in assay [7] (Compound concentration: 30 μM). For the same molecule, the inhibition at 30 µM in assay [8] (Compound concentration: 30 μM) was no less than 50%.

As to `COc1ccc2c(c1)/C(=C\c1cccc(COc3ccccc3)c1)C(C)=C2CC(=O)O` [B8, (Z)-2-(6-Methoxy-2-methyl-1-(3-(phenoxymethyl)benzylidene)-1H-inden-3-yl)-acetic acid], the inhibition at 10 µM in assay [1] is greater than 80%; in assay [2], 30 to 50%; in assay [3], 30 to 50%; in assay [4] it was no less than 50%; in assay [5], no less than 50%; in assay [6] it was no less than 50%. In addition, the inhibition at 10 µM in assay [7] and in assay [8] was no less than 50% in each case. Also, the inhibition at 3.3 µM was less than 30% in assay [2]; 30 to 50% in assay [3]; no less than 50% in assay [4]; less than 30% in assay [5]; 30 to 50% in assay [6]; no less than 50% in assay [7]. Besides, the inhibition at 3.3 µM in assay [8] lay within 30 to 50%.
